Laboratory results as given in PubChem BioAssay AID606 (Columbia University Molecular Screening Center, 2007).
The source made the active and inactive calls.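 The calls were made as follows: active = IC50 under 40 µM in the dose-response test; inactive = IC50 of 40 µM or more, or never dose-tested.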

Target: Tyrosine-protein phosphatase non-receptor type 22 (Homo sapiens) (UniProt Q9Y2R2)
Assay: inhibition of human PTPN22 tyrosine phosphatase – biochemical, DiFMUP fluorescence, recombinant catalytic domain, 10 µM, primary screen (AID 606)
Conditions: recombinant LYP catalytic domain

Sequence of Tyrosine-protein phosphatase non-receptor type 22 (Homo sapiens) (Q9Y2R2 whole entry, looked up, the tested form may be a part): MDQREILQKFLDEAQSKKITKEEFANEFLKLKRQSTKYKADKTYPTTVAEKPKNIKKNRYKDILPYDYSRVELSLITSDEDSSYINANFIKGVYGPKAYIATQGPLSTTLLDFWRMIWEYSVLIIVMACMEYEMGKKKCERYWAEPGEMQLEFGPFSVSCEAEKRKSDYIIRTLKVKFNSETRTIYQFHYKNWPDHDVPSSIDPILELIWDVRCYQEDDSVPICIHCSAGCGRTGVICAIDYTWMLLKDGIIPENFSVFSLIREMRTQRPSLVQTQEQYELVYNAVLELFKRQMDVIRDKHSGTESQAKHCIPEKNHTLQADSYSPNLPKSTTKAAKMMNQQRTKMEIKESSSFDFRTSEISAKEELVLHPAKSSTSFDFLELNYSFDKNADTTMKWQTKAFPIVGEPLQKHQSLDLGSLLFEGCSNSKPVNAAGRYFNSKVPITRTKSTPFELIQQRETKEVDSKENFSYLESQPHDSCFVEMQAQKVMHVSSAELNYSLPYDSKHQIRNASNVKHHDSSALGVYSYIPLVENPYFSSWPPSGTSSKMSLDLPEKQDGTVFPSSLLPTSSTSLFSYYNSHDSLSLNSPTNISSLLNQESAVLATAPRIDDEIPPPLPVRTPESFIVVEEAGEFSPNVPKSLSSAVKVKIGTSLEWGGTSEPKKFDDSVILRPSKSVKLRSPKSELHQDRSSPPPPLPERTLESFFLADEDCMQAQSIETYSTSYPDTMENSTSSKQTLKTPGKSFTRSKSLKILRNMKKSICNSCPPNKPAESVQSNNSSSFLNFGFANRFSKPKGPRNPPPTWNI

`Oc1ccc2ccccc2c1C=NC12CN3CCN(CN(C3)C1)C2` was tested, and the IC50 was > 40 µM (inactive).
